Results on six molecules are retold here after US12630600B2 (MEDIMMUNE LIMITED, priority 2022, dated 2026).

Starred links: 1 amine or outer side, 2 acyl side, 3 side chain; linkers in the order of their positions; H or OH if unused. Non-standard residues stand in square brackets, D forms with d. Residues, ends and D or L forms follow the SMILES beside them. Groups on a side chain read outwards from the residue. No end group written: not given here. *: point of attachment. C20 diacid = O=C(O)CCCCCCCCCCCCCCCCCCC(=O)*; C18 diacid = O=C(O)CCCCCCCCCCCCCCCCC(=O)*; γGlu = O=C(O)[C@H](CCC(=O)[*:2])N[*:1]; Stearoyl = CCCCCCCCCCCCCCCCCC(=O)*; αMeF = C[C@](N)(Cc1ccccc1)C(=O)O; PEG2 = NCCOCCOCCC(=O)O; AEEA = NCCOCCOCC(=O)O; Aib = CC(C)(N)C(=O)O

The target of data set [1] is T1, human GLP-1 receptor (hGLP-1R) (Homo sapiens, UniProt P43220).
T1 construct: expressed in transfected cells; host or cells: CHO
T1 sequence (P43220 24-463): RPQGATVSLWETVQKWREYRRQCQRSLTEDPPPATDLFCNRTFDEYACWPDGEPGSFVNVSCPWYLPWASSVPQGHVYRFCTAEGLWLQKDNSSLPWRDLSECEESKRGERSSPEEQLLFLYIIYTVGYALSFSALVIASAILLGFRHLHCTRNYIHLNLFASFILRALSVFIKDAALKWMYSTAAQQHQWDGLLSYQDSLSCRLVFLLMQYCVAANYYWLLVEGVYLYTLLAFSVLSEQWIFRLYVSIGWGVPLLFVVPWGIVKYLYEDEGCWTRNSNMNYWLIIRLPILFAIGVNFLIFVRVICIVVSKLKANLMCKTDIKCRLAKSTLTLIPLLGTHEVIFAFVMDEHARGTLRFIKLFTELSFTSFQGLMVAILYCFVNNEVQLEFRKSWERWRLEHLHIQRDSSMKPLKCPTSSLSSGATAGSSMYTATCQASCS
Briefly: cAMP production (HTRF) in CHO cells expressing human GLP-1 receptor. The format is cell-based. The following applies: Table 8; % GLP-1R activity relative to GLP-1 / % GlucR activity relative to glucagon.

A further data set deals with Male C57Bl/6 mice. Briefly: Mouse acute food intake study. It is filed as in vivo. The following applies: s.c., dose 10 nmol/kg, food intake at 24 h vs vehicle. As to the method:
Male C57Bl/6 mice obtained from Jackson Laboratories or Charles River at 8-9 weeks of age and were housed one per cage in BioDaq (Research Diets) cages. Mice were placed on Alpha Dri bedding, standard chow diet (Envigo, 2018) and given water pouches. Mice were allowed to acclimate for 1-2 weeks. Body weight was measured to ensure appropriate acclimation. After acclimation, mice were sham dosed a minimum of 2 times prior to initiation of food intake study. On study day, mice were placed in clean cage bottoms, weighed, and fasted for 6-8 hours. Mice were sorted into groups based on average 24-hour food intake data and body weight. 1-2 hours prior to lights out, mice were dosed subcutaneously with one vehicle or test peptide dissolved in an appropriate vehicle at 5 mL/kg. Mice were left undisturbed and allowed access to food and water for 48 hours. Automated food intake was monitored in the BioDaq system was monitored during this time. Discrete food intake data was exported into MS Excel from which cumulative food intake data was generated and analyzed.

A further data set relates to wildtype (WT) mice. Briefly: Glucose change in wildtype mice. The following applies: s.c. It is filed as in vivo, mouse. As to the method: (§1) GLP-JR knockout (KG) and wildtype (WT) mice at 8-14 weeks of age were singly housed on standard chow diet (Envigo, 2918) and automatic water. They acclimated for a minimum of ˜1-2 weeks, and mice were sorted into groups (n=4-8/group) based on body weight. On day of study, mice were fasted briefly for 2 hrs prior to study start. In some studies, mice were pre-treated with octreotide (BaChem, 10 mg/kg) at 30 minutes prior to peptide injection. Glucose was measured via glucometer at various timepoints including −30 min (prior to octreotide when used in studies), 0 min (before peptide dose), 30, 60, 120, 180, 240, and 360 minutes. Since these studies are acute in nature, mice were re-used for multiple studies (no more than 3) and always allowed at least a minimum wash-out period of 1 week.

The next data set relates to GLP-1R knockout mice. Briefly: Glucose change in GLP-1R knockout mice. The format is in vivo, mouse. The following applies: GLP-1R KO mice, s.c., 10 nmol/kg, no somatostatin pretreatment. As to the method:
as §1, with “They” for “GLP-JR knockout (KG) and wildtype (WT) mice at 8-14 weeks of age were singly housed on standard chow diet (Envigo, 2918) and automatic water. They”

The next data set deals with T2, neprilysin (Homo sapiens, UniProt P08473).
T2 construct: purchased R&D Systems 1182-ZNC-010
T2 sequence (P08473 whole entry): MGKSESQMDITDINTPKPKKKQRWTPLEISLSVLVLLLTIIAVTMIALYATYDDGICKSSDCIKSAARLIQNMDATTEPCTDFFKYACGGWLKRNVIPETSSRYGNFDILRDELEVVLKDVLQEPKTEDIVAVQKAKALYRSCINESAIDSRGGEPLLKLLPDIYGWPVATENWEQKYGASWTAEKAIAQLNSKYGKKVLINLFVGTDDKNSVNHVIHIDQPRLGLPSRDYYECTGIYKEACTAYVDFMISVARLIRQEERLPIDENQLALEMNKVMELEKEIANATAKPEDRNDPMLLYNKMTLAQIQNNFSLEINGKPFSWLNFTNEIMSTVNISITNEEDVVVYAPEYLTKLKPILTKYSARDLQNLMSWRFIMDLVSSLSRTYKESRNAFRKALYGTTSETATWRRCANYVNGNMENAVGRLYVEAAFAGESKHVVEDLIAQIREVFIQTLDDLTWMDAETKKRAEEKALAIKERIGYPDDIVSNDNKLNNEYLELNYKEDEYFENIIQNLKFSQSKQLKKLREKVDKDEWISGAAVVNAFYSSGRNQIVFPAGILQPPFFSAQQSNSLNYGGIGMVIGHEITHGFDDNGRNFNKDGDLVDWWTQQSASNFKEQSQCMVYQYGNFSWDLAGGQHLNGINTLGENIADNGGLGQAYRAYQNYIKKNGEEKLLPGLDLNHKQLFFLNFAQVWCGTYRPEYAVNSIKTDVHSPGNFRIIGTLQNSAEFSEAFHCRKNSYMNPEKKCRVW
Briefly: Proteolytic resistance to neprilysin. The format is in vitro ADME. The settings on record: pH 8.3. Here is the method:
10.0 μg (˜10 units) recombinant Neprilysin (R&D Systems: 1182-ZNC-010) was reconstituted to 100 μL (100 μg/mL, ˜100 units/mL) in assay buffer (50 mM Tris, 50 mM NaCl, 50 mM NaHCO3, adjusted to pH 8.3) to give the enzyme stock solution. Peptide stock solutions were prepared to a concentration of ˜250 μM (˜1.0 mg/mL of 4 kDa peptide) in assay buffer. 100 μL (10 μg, ˜10 units) of neprilysin stock solution was added to 100 μL of peptide stock solution (1.0 mg/mL, ˜100 μg of peptide) and the mixture was co-incubated in a temperature regulated incubator at 37° C. for the duration of the experiment. 25 μL aliquots (˜12.5 μg initial peptide) of the peptide-enzyme mixture were periodically withdrawn (t=0, 30 mins, 1 h, 2 h, 4 h and 24 h) and quenched immediately by addition to an equal volume ([…]) of 10% TFA (v/v) in 1:1 water/acetonitrile to arrest proteolytic activity. The quenched aliquot centrifuged at 7800 rpm, and 30 μL of the supernatant was analyzed by analytical RP-HPLC as follows: Analytical RP-HPLC method: Agilent Polaris C8-A column (4.6×100 mm, 3 micron) eluted with a linear binary gradient of 10-90% MeCN (0.1% TFA v/v) in water (0.1% TFA v/v) over either 10 or 15 mins at 1.5 mL min^−1 at 40° C. with detection by UV absorption at 210 nm. Manual integration (AUC) allowed estimation of remaining intact peptide over the time course of the experiment.

For the next data set, the target named is human glucagon receptor (human, UniProt P47871). Briefly: cell-based or functional assay.

Regarding `CC[C@H](C)[C@H](NC(=O)C(C)(C)NC(=O)[C@H](CCCCNC(=O)COCCOCCNC(=O)COCCOCCNC(=O)CC[C@H](NC(=O)CC[C@H](NC(=O)CCCCCCCCCCCCCCCCCCC(=O)O)C(=O)O)C(=O)O)NC(=O)[C@@H](NC(=O)[C@](C)(Cc1ccccc1)NC(=O)[C@H](CC(=O)O)NC(=O)[C@H](CCC(N)=O)NC(=O)[C@H](C)NC(=O)[C@H](C)NC(=O)[C@H](CCCNC(=N)N)NC(=O)[C@H](CO)NC(=O)[C@H](CC(=O)O)NC(=O)[C@H](CC(C)C)NC(=O)[C@](C)(Cc1ccccc1)NC(=O)[C@H](CCCCN)NC(=O)[C@H](CO)NC(=O)[C@@H](NC(=O)[C@H](CC(=O)O)NC(=O)[C@H](CO)NC(=O)[C@@H](NC(=O)[C@](C)(Cc1ccccc1)NC(=O)[C@H](CO)NC(=O)CNC(=O)[C@H](Cc1c[nH]cn1)NC(=O)C(C)(C)NC(=O)[C@@H](N)Cc1c[nH]cn1)[C@@H](C)O)C(C)C)C(C)C)C(=O)N[C@@H](C)C(=O)N[C@@H](CC(N)=O)C(=O)N[C@H](C(N)=O)[C@@H](C)O` [Peptide 375] (H-H[Aib]HGS[αMeF]TSDVSK[αMeF]LDSRAAQD[αMeF]VK([AEEA-AEEA-γGlu-γGlu-C20 diacid])[Aib]IANT-NH2), in data set [1], the “% Relative Potency Ratio” value worked out at 1.4. Also, the “24 hr % Vehicle Food Intake” value in the data set with Male C57Bl/6 mice is 66.0%.
Consider `CC[C@H](C)[C@H](NC(=O)[C@H](Cc1c[nH]c2ccccc12)NC(=O)[C@H](CCCCNC(=O)COCCOCCNC(=O)COCCOCCNC(=O)CC[C@H](NC(=O)CCCCCCCCCCCCCCCCC(=O)O)C(=O)O)NC(=O)[C@@H](NC(=O)[C@H](Cc1ccccc1)NC(=O)[C@H](CC(=O)O)NC(=O)[C@H](CCC(N)=O)NC(=O)[C@H](C)NC(=O)[C@H](C)NC(=O)[C@H](CCCNC(=N)N)NC(=O)[C@H](CO)NC(=O)[C@H](CC(=O)O)NC(=O)[C@H](CC(C)C)NC(=O)[C@](C)(Cc1ccccc1)NC(=O)[C@H](CCCCN)NC(=O)[C@H](CO)NC(=O)[C@@H](NC(=O)[C@H](CC(=O)O)NC(=O)[C@H](CO)NC(=O)[C@@H](NC(=O)[C@](C)(Cc1ccccc1)NC(=O)[C@H](CO)NC(=O)CNC(=O)[C@H](Cc1c[nH]cn1)NC(=O)C(C)(C)NC(=O)[C@@H](N)Cc1c[nH]cn1)[C@@H](C)O)C(C)C)C(C)C)C(=O)N[C@@H](C)C(=O)N[C@@H](CC(N)=O)C(=O)N[C@H](C(N)=O)[C@@H](C)O` [Peptide 361] (H-H[Aib]HGS[αMeF]TSDVSK[αMeF]LDSRAAQDFVK([AEEA-AEEA-γGlu-C18 diacid])WIANT-NH2), for which the “% Relative Potency Ratio” value in data set [1] is 1.3. The “WT % glucose change 120 min” value in the data set with wildtype (WT) mice (10 nmol/kg, somatostatin pretreatment 30 min prior to cpd) is −23.0%.
Take `CC(C)C[C@H](NC(=O)[C@H](Cc1c[nH]c2ccccc12)NC(=O)[C@H](CCC(N)=O)NC(=O)[C@@H](NC(=O)[C@H](Cc1ccccc1)NC(=O)[C@H](CC(=O)O)NC(=O)[C@H](CCCNC(=N)N)NC(=O)[C@H](C)NC(=O)[C@H](CCCNC(=N)N)NC(=O)[C@H](CCCCNC(=O)COCCOCCNC(=O)COCCOCCNC(=O)CC[C@H](NC(=O)CCCCCCCCCCCCCCCCC(=O)O)C(=O)O)NC(=O)[C@@H](NC(=O)[C@H](CC(=O)O)NC(=O)[C@H](CC(C)C)NC(=O)[C@](C)(Cc1ccccc1)NC(=O)[C@H](CCCCN)NC(=O)[C@H](CO)NC(=O)[C@@H](NC(=O)[C@H](CC(=O)O)NC(=O)[C@H](CO)NC(=O)[C@@H](NC(=O)[C@H](Cc1ccccc1)NC(=O)[C@@H](NC(=O)CNC(=O)[C@H](CCC(N)=O)NC(=O)C(C)(C)NC(=O)[C@@H](N)Cc1c[nH]cn1)[C@@H](C)O)[C@@H](C)O)C(C)C)[C@@H](C)O)C(C)C)C(=O)N[C@@H](CC(C)C)C(=O)N[C@@H](CCC(=O)O)C(=O)NC(C)(C)C(=O)NCC(=O)O` [Peptide 188, H-Aib-Q-G-T-F-T-S-D-V-S-K-αMePhe-L-D-T-K-R-A-R-D-F-V-Q-W-L-L-E-Aib-G-acid]: the “GLP-1R KO % glucose change −60 min” value in the data set on GLP-1R knockout mice is on record as 64%.
Regarding `CCCCCCCCCCCCCCCCCC(=O)N[C@@H](CCC(=O)N[C@@H](CCC(=O)NCCOCCOCCC(=O)NCCOCCOCCC(=O)NCCCC[C@H](NC(=O)[C@H](CO)NC(=O)[C@H](CC(=O)O)NC(=O)[C@H](CC(C)C)NC(=O)[C@](C)(Cc1ccccc1)NC(=O)[C@H](CCCCN)NC(=O)[C@H](CO)NC(=O)[C@@H](NC(=O)[C@H](CC(=O)O)NC(=O)[C@H](CO)NC(=O)[C@@H](NC(=O)[C@](C)(Cc1ccccc1)NC(=O)[C@H](CO)NC(=O)CNC(=O)[C@H](CCC(N)=O)NC(=O)[C@H](CO)NC(=O)[C@@H](N)Cc1c[nH]cn1)[C@@H](C)O)C(C)C)C(=O)N[C@@H](C)C(=O)N[C@@H](C)C(=O)N[C@@H](CCC(N)=O)C(=O)N[C@@H](CC(=O)O)C(=O)N[C@@](C)(Cc1ccccc1)C(=O)N[C@H](C(=O)N[C@@H](CCC(N)=O)C(=O)NC(C)(C)C(=O)N[C@@H](CC(C)C)C(=O)N[C@@H](CCC(=O)O)C(=O)N[C@@H](C)C(=O)NCC(=O)NCC(N)=O)C(C)C)C(=O)O)C(=O)O` [Peptide 78] (H-HSQGS[αMeF]TSDVSK[αMeF]LDSK([PEG2-PEG2-γGlu-γGlu-Stearoyl])AAQD[αMeF]VQ[Aib]LEAGG-NH2; N-terminus assumed), the “% intact peptide over time, Neprilysin” value at neprilysin was 100%. The “WT % glucose change 120 min” value in the data set with wildtype (WT) mice (3 nmol/kg, no somatostatin pretreatment) is on record as −42.0%.

B1: Peptide 362 (peptide)
peptide: H[Aib]HGS[αMeF]TSDVSK[αMeF]LDSRAAQDFVK([AEEA-AEEA-γGlu-γGlu-C18 diacid])WIANT-NH2
modifications: N-terminus assumed
SMILES: CC[C@H](C)[C@H](NC(=O)[C@H](Cc1c[nH]c2ccccc12)NC(=O)[C@H](CCCCNC(=O)COCCOCCNC(=O)COCCOCCNC(=O)CC[C@H](NC(=O)CC[C@H](NC(=O)CCCCCCCCCCCCCCCCC(=O)O)C(=O)O)C(=O)O)NC(=O)[C@@H](NC(=O)[C@H](Cc1ccccc1)NC(=O)[C@H](CC(=O)O)NC(=O)[C@H](CCC(N)=O)NC(=O)[C@H](C)NC(=O)[C@H](C)NC(=O)[C@H](CCCNC(=N)N)NC(=O)[C@H](CO)NC(=O)[C@H](CC(=O)O)NC(=O)[C@H](CC(C)C)NC(=O)[C@](C)(Cc1ccccc1)NC(=O)[C@H](CCCCN)NC(=O)[C@H](CO)NC(=O)[C@@H](NC(=O)[C@H](CC(=O)O)NC(=O)[C@H](CO)NC(=O)[C@@H](NC(=O)[C@](C)(Cc1ccccc1)NC(=O)[C@H](CO)NC(=O)CNC(=O)[C@H](Cc1c[nH]cn1)NC(=O)C(C)(C)NC(=O)[C@@H](N)Cc1c[nH]cn1)[C@@H](C)O)C(C)C)C(C)C)C(=O)N[C@@H](C)C(=O)N[C@@H](CC(N)=O)C(=O)N[C@H](C(N)=O)[C@@H](C)O
Take B1: in the data set with human glucagon receptor, the “hGluc-R EC50 (pM)” value was 42.8 pM.

B2: Peptide 367 (peptide)
peptide: H[Aib]HGS[αMeF]TSDVSK[αMeF]LDSRAAQDFVK([AEEA-AEEA-γGlu-C20 diacid])WIANT-NH2
modifications: not fully specified
In the case of B2, the “hGluc-R EC50 (pM)” value with human glucagon receptor came to 72.4 pM.
